Reference: PubChem BioAssay (NCI)
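Abbreviation: GI50, concentration required for 50% inhibition of growth. TGI marks complete inhibition of growth.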

Experiments:
Assay in all cases: NCI anticancer screen, dose series, 384-well format
[1] = tested on: KM12 colon
[2] = tested on: K-562 leukemia
[3] = tested on: RXF 393 renal
[4] = tested on: T-47D breast
[5] = tested on: MOLT-4 leukemia
[6] = tested on: SNB-19 CNS
[7] = tested on: M14 melanoma
[8] = tested on: BT-549 breast
[9] = tested on: SK-OV-3 ovarian
[10] = tested on: NCI-H460 NSCLC
[11] = tested on: OVCAR-8 ovarian
[12] = tested on: SN12C renal
[13] = tested on: SF-295 CNS
[14] = tested on: SF-268 CNS
[15] = tested on: A549 NSCLC
[16] = tested on: HL-60(TB) leukemia
[17] = tested on: TK-10 renal
[18] = tested on: UACC-257 melanoma
[19] = tested on: HOP-62 NSCLC
[20] = tested on: MDA-MB-231 breast
[21] = tested on: 786-0 renal
[22] = tested on: HCT-15 colon
[23] = tested on: COLO 205 colon
[24] = tested on: IGROV1 ovarian
[25] = tested on: LOX IMVI melanoma
[26] = tested on: SK-MEL-28 melanoma
[27] = tested on: NCI-H226 lung
[28] = tested on: NCI-H23 lung
[29] = tested on: PC-3 prostate
[30] = tested on: NCI-H522 lung
[31] = tested on: NCI-H322M lung
[32] = tested on: CCRF-CEM leukemia
[33] = tested on: HCC-2998 colon
[34] = tested on: A498 renal
[35] = tested on: OVCAR-3 ovarian
[36] = tested on: SK-MEL-5 melanoma
[37] = tested on: SW-620 colon
[38] = tested on: MDA-MB-435 melanoma
[39] = tested on: SNB-75 CNS
[40] = tested on: HT29 colon
[41] = tested on: MCF7 breast
[42] = tested on: CAKI-1 renal
[43] = tested on: OVCAR-5 ovarian
[44] = tested on: U251 glioblastoma
[45] = tested on: HCT-116 colon
[46] = tested on: HS 578T breast
[47] = tested on: SR leukemia
[48] = tested on: UO-31 renal
[49] = tested on: RPMI-8226 leukemia
[50] = tested on: NCI/ADR-RES ovarian
[51] = tested on: EKVX NSCLC
[52] = tested on: MDA-MB-468 breast
[53] = tested on: SF-539 CNS
[54] = tested on: HOP-92 NSCLC
[55] = tested on: DU-145 prostate
[56] = tested on: MALME-3M melanoma
[57] = tested on: ACHN renal
[58] = tested on: OVCAR-4 ovarian

SMILES: CN1CCC(CNc2ccc3ncc(-c4cccc(OC(F)(F)F)c4)n3n2)CC1
- GI50 [1]: 0.375 µM
- TGI [1]: 1.42 µM
- GI50 [2]: 1.63 µM
- TGI [2]: 3.04 µM
- GI50 [3]: 1.35 µM
- TGI [3]: 2.64 µM
- GI50 [4]: 1.77 µM
- TGI [4]: 3.17 µM
- GI50 [5]: 1.31 µM
- TGI [5]: 2.59 µM
- GI50 [6]: 1.74 µM
- TGI [6]: 3.17 µM
- GI50 [7]: 1.49 µM
- TGI [7]: 2.82 µM
- GI50 [8]: 1.4 µM
- TGI [8]: 2.71 µM
- GI50 [9]: 1.67 µM
- TGI [9]: 3.05 µM
- GI50 [10]: 1.71 µM
- TGI [10]: 3.15 µM
- GI50 [11]: 1.61 µM
- TGI [11]: 2.99 µM
- GI50 [12]: 1.55 µM
- TGI [12]: 2.91 µM
- GI50 [13]: 1.45 µM
- TGI [13]: 2.78 µM
- GI50 [14]: 1.65 µM
- TGI [14]: 3.04 µM
- GI50 [15]: 1.72 µM
- TGI [15]: 3.12 µM
- GI50 [16]: 1.25 µM
- TGI [16]: 2.53 µM
- GI50 [17]: 1.7 µM
- TGI [17]: 3.11 µM
- GI50 [18]: 1.62 µM
- TGI [18]: 2.98 µM
- GI50 [19]: 1.62 µM
- TGI [19]: 3 µM
- GI50 [20]: 1.61 µM
- TGI [20]: 2.97 µM
- GI50 [21]: 1.66 µM
- TGI [21]: 3.05 µM
- GI50 [22]: 1.58 µM
- TGI [22]: 2.97 µM
- GI50 [23]: 1.79 µM
- TGI [23]: 3.19 µM
- GI50 [24]: 1.55 µM
- TGI [24]: 2.94 µM
- GI50 [25]: 1.74 µM
- TGI [25]: 3.14 µM
- GI50 [26]: 1.75 µM
- TGI [26]: 3.13 µM
- GI50 [27]: 1.48 µM
- TGI [27]: 2.82 µM
- GI50 [28]: 1.54 µM
- TGI [28]: 2.94 µM
- GI50 [29]: 1.26 µM
- TGI [29]: 2.62 µM
- GI50 [30]: 1.56 µM
- TGI [30]: 2.9 µM
- GI50 [31]: 1.92 µM
- TGI [31]: 3.8 µM
- GI50 [32]: 1.8 µM
- TGI [32]: 3.21 µM
- GI50 [33]: 1.43 µM
- TGI [33]: 2.76 µM
- GI50 [34]: 1.42 µM
- TGI [34]: 2.73 µM
- GI50 [35]: 1.62 µM
- TGI [35]: 3.01 µM
- GI50 [36]: 1.12 µM
- TGI [36]: 2.33 µM
- GI50 [37]: 1.6 µM
- TGI [37]: 2.98 µM
- GI50 [38]: 1.71 µM
- TGI [38]: 3.1 µM
- GI50 [39]: 1.5 µM
- TGI [39]: 2.86 µM
- GI50 [40]: 1.66 µM
- TGI [40]: 3.09 µM
- GI50 [41]: 1.45 µM
- TGI [41]: 2.8 µM
- GI50 [42]: 1.38 µM
- TGI [42]: 2.71 µM
- GI50 [43]: 1.61 µM
- TGI [43]: 3.21 µM
- GI50 [44]: 1.81 µM
- TGI [44]: 3.22 µM
- GI50 [45]: 1.59 µM
- TGI [45]: 2.98 µM
- GI50 [46]: 1.59 µM
- TGI [46]: 2.95 µM
- GI50 [47]: 1.25 µM
- TGI [47]: 2.52 µM
- GI50 [48]: 1.66 µM
- TGI [48]: 3.04 µM
- GI50 [49]: 1.37 µM
- TGI [49]: 2.67 µM
- GI50 [50]: 1.62 µM
- TGI [50]: 3.02 µM
- GI50 [51]: 1.48 µM
- TGI [51]: 2.9 µM
- GI50 [52]: 1.1 µM
- TGI [52]: 2.31 µM
- GI50 [53]: 1.53 µM
- TGI [53]: 2.87 µM
- GI50 [54]: 1.65 µM
- TGI [54]: 3.02 µM
- GI50 [55]: 2.05 µM
- TGI [55]: 4.51 µM
- GI50 [56]: 1.56 µM
- TGI [56]: 2.91 µM
- GI50 [57]: 1.59 µM
- TGI [57]: 2.96 µM
- GI50 [58]: 1.74 µM
- TGI [58]: 3.19 µM
